Data on 2 molecules can be found in patent US20250236616A1, “IMMUNOMODULATING AZALIDES” (Zoetis Services LLC, priority 2021, published 2025).

Values after ≈ are worked out from the molar mass of the structure shown.

One test has as its system H. somni. The test is described as follows: MIC, H. somni strains. The test is classed as cell-based. From the text:
(§1) Primary screening of the compounds of the invention included the evaluation of antibacterial activity of analogs through determination of microbial inhibition concentration (MIC) as per CLSI guidelines. The screening panel included the relevant BRD pathogens: 1) M. haemolytica (e.g., 12726, 46571 and 49023, all AHDRCC; and 33396 (ATCC)); and 2) P. multocida (e.g., 34135 and 46572 (both AHDRCC) and 43137 (ATCC)). In some instances, H. somni (A700025K) pathogens were also included in the screening panel. The AHDRCC strains originated from the Zoetis BRD/SRD surveillance program and refer to the Animal Health Development and Research Culture Collection. In addition, the screen assessed S. aureus (29213 ATCC) as a representative Gram-positive isolate, E.faecalis (19433 ATCC) as a commensal gram-positive gastrointestinal bacterium and E. coli (100, 3110 and 25922 (ATCC)) for the evaluation of efflux potential. The screening panel BRD pathogens were assessed in determining antibacterial activity of the Formula (1) compounds.
(§2) All relevant BRD pathogens were initially screened at a top concentration of 64 μg/mL of a Formula (1) compound in an eleven-point dilution series. […] If an Example was purified further, the MICs moved […] essentially two dilutions across all strains tested in the screening panel.
(§3) In-Vitro MIC Model Compounds were analyzed for antibacterial activity against a panel of animal health specific gram-positive and gram-negative clinical strains by diluting compounds in DMSO to an appropriate stock concentration to determine the Minimal Inhibitory Concentration (MIC) via a semi-automated broth micro-dilution method (CLSI reference method) with QC strains and anti-microbial agent(s). Specifically, bacteria were grown overnight on TSA w/5% sheep blood agar plates and diluted in saline buffer to a McFarland Standard 0.5, then further diluted in cation-ion adjusted Mueller Hinton Broth to a final concentration of approximately 5×10^5 CFU/mL. 100 μL of inoculated media was added to 96-well plate(s) with 3 μL of serially diluted compound in each row. Depending on strain (see CLSI reference method), bacteria were incubated 18-22 hours at 35-37° C. in ambient air, with 5% CO2 or anaerobically (up to 48 hours).

The subject of the next test is M. haemolytica. The test is described as follows: MIC, M. haemolytica strains. The test is classed as cell-based.
Text: as §1, §2, §3

The test system of test [1] is natural bovine respiratory disease (BRD). The test is described as follows: Natural bovine respiratory disease study, treatment failure. The test is classed as in vivo, beef calves. As to conditions: Zactran group T04 (dose not given), 14-day observation.
Test [2] concerns P. multocida. As to the kind of experiment: MIC, P. multocida strains. The test is classed as cell-based.
Text: as §1, §2, §3

The test system of a further test is E. coli. The test is described as follows: MIC, E. coli. The test is classed as cell-based. As to conditions: Escherichia coli.
Text: as §1, §2, §3

A further test deals with IL-6. The test is described as follows: IL-6 biomarker in bovine M. haemolytica challenge. The test is classed as in vivo. The protocol: Cytokine Detection—An MSD U-Plex cytokine assay was developed following the MSD U-Plex protocol guide and included biotinylated capture antibodies against: bovine Interleukin (IL)-1β (Biorad), bovine IL-6 (R&D Systems) and bovine tumor necrosis factor (TNF)-α (R&D Systems). The anti-IL-1β antibody was biotinylated using EZ-Link Sulfo-NHS-Biotin (Thermo Scientific) at a challenge ratio of 1:20 according to manufacturer instructions. Assay calibrators (Kingfisher) were diluted to a concentration of […] in control lithium heparin plasma, followed by 4-fold serial dilutions into plasma. The detection antibodies were sulfo-tagged following the MSD quick guide conjugation protocol using a challenge ratio of 1:20. Antibodies were used at the following concentrations: anti-IL-1β at 1 μg/mL, anti-IL-6 at 1 μg/mL and anti-TNF-α at 0.5 μg/mL. Cytokines were quantified according to manufacturer's instructions using a chemiluminescent readout. In brief, 0.5 mL of all biotinylated antibodies were diluted to 10 μg/mL with Diluent 100 and paired to their respective linkers by adding 750 μL of supplied Linker solution and incubated for 30 minutes followed by addition of Stop solution for another 30 minutes. […] Plates were washed a further three times before addition of 150 μL 2X Read buffer and read immediately on the SI6000 instrument (MSD). […]

The subject of test [3] is P. multocida. The test is described as follows: Murine P. multocida intranasal challenge study, treatment 18 hours after challenge, survival. Type of test: in vivo, mice. As to conditions: subcutaneous 18 hours after challenge (5×10^3 CFU/mouse); tulathromycin 16 mg/kg, M9 32 mg/kg, ceftiofur 9 mg/kg. The protocol: In one murine P. multocida intranasal challenge study, mice were administered tulathromycin (16 mg/kg; T02), M9 (32 mg/kg; T03), or ceftiofur (9 mg/kg; T04) by subcutaneous injection 18 hours after bacterial challenge (5×10^3 CFU/mouse) for lung tissue RNA sequence analysis. Survival at Day 7 was about 80%, 50%, and 90% for T02, T03, and T04, respectively, compared to placebo at 0%. Differential gene expression from total lung tissue RNA sequence analysis indicated at least 226 unique genes were up or down regulated (with significance) for T03. Output from ingenuity pathway analysis of these unique genes predicted major upstream regulators of the involved pathways. Data was analyzed based on the number of genes being modulated in the same direction that were associated with a given upstream regulator. An activation z-score of 2 or greater is considered significant and the direction change is indicated by + (activated) or -(inhibited). The top 5 pathways included: IL-9 signaling, glucocorticoid receptor signaling, prolactin signaling, JAK STAT signaling, and IL-17 signaling. The top 6 upstream regulators (activation z-score) included: lipopolysaccharide (−6.725), TNF (−4.669), IFNγ (−5.759), IL-1β (−5.947), STAT1 (−2.787), and poly rl: rC-RNA (−5.289). Even though this study was run in the murine model, the top upstream regulators identified as being modulated by M9 include an almost ubiquitous overlap with the pathways identified in the natural disease study as being key mediators in BRD, and therefore is modulating highly relevant pathways in BRD pathobiology.

Test [4] deals with M. haemolytica (strain: OSU-012103-BHI). As to the kind of experiment: Bovine M. haemolytica intratracheal lung challenge model, mortality. The test is classed as in vivo. The settings on record: M. haemolytica challenge Day 0; subcutaneous Day -1; M9 10 mg/kg, Draxxin 2.5 mg/kg; 6 animals. The procedure:
To evaluate immunomodulation effects and potential biomarkers, a bovine M. haemolytica (strain: OSU-012103-BHI) intratracheal lung challenge model study was completed utilizing M9 treatment in the presence and absence of bacterial challenge and a Draxxin® comparator. […] Animals were administered 0.05 mL/kg saline (T01), 10 mg/kg M9 (T02); Draxxin 2.5 mg/kg (T03) and 10 mg/kg M9 (T04) by subcutaneous injection on Day-1. Dose was based on body weight. Animals were challenge on Day 0 with the exception of T04. Blood was collected longitudinally throughout the study for biomarker evaluation panel (e.g., IL-6 and CD163) including two baseline samples prior to treatment. FIG. 4A depicts the area under the curve concentrations for IL-6 protein for individual animals against percent lung lesion scores and FIG. 4B depicts the CD163 fold change area under the curve for individual animals against percent lung lesion scores. Data is represented as percent lung lesion scores against the area under the curve (AUC) for IL-6 protein (immunoassay expressed in pg/mL) and CD163 (flow cytometric mean fluorescent intensity (MFI) in fold change from baseline). In both assays, a 2-fold change is typically considered to be relevant.

[5] abbreviates: lung isolates at necropsy, natural BRD study, n=25.
[6] abbreviates: lung isolates at necropsy, natural BRD study, n=116.
The mark [7] stands for this setting: lung isolates at necropsy, natural BRD study, n=33.

As to `CCCN1C[C@H](C)[C@@H](O)[C@](C)(O)[C@@H](CC)OC(=O)[C@H](C)[C@@H](O[C@H]2C[C@@](C)(OC)[C@@H](O)[C@H](C)O2)[C@H](C)[C@@H](O[C@@H]2O[C@H](C)C[C@H](N(C)C)[C@H]2O)[C@](C)(O)C[C@H]1C` [gamithromycin, reference compound], the “MIC values, range” value against H. somni (H. somni strains) was in the range of 0.25 to 8 µg/mL; against M. haemolytica (the same M. haemolytica strains of the panel), 0.5 to 1 µg/mL; in the test with P. multocida [2] (the same P. multocida strains of the panel), 1 to 2 µg/mL. The results for the MIC50 in the test with H. somni (setting [5]), against M. haemolytica (setting [6]) and with P. multocida [2] (setting [7]) were 0.25 µg/mL (≈ 0.322 µM), 1 µg/mL (≈ 1.29 µM) and 1 µg/mL (≈ 1.29 µM), respectively. Further, the MIC90 is 2 µg/mL (≈ 2.57 µM) against H. somni (setting [5]), above 64 µg/mL against M. haemolytica (setting [6]) and above 64 µg/mL with P. multocida [2] (setting [7]). Further, the “MIC Range” value against H. somni (setting [5]) was in the range of 0.12 to 2 µg/mL. In test [1], this molecule yielded a Percent failure of 29.8%.
Consider `CCCNC[C@]1(O)[C@H](C)O[C@@H](O[C@H]2[C@H](C)[C@@H](O[C@@H]3O[C@H](C)C[C@H](N(C)C)[C@H]3O)[C@](C)(O)C[C@@H](C)CN[C@H](C)[C@@H](O)[C@](C)(O)[C@@H](CC)OC(=O)[C@@H]2C)C[C@@]1(C)OC` [tulathromycin, (2R,3S,4R,5R,8R,10R,11R,12S,13S,14R)-11-(((2S,3R,4S,6R)-4-(dimethylamino)-3-hydroxy-6-methyltetrahydro-2H-pyran-2-yl)oxy)-2-ethyl-3,4,10-trihydroxy-13-(((2R,4R,5S,6S)-5-hydroxy-4-methoxy-4,6-dimethyl-5-((propylamino)methyl)tetrahydro-2H-pyran-2-yl)oxy)-3,5,8, 10, 12, 14-hexamethyl-1-oxa-6-azacyclopentadecan-15-one], for which the minimal inhibitory concentration (MIC) amounted to 2 µg/mL (≈ 2.48 µM) in the test with E. coli (E. coli 25922) and 8 µg/mL (≈ 9.92 µM) with E. coli (E. coli W3110). For the same molecule, the IL-6 levels entry in the test with IL-6 was “significantly reduced IL-6 levels”. The “Survival at Day 7” value with P. multocida [3] is listed as “about 80%”. In addition, the Mortality in test [4] is 0/6.

Usually MIC50 stands for an inhibitory concentration at the 50% level, which refers to growth in some studies and to a panel of isolates in others. The low end stands for higher susceptibility, the high end for lower susceptibility. In general, MIC90 refers to an inhibitory concentration at the 90% level, which refers to growth in some studies and to a panel of isolates in others. Low readings indicate higher susceptibility, high ones lower susceptibility. Usually MIC stands for the least concentration at which growth counts as inhibited. Read a high MIC as a need for much substance.
